Test results published in article PMC3867298 (Clinical cancer research : an official journal of the …, 2010).

Tests used:
[1] = Plasma pharmacokinetics in patients; type: in vivo, human; conditions: for AUC(0-inf) / Cmax / Tmax / half-life / Vd/F: human, plasma, oral; for Vd/F: 160 mg/m2, Vd/F
[2] = system: plasma soluble VEGFR2 (sVEGFR2); experiment: Plasma soluble VEGFR2 ELISA; type: in vivo, human; conditions: cycle 1, day 28 (95% CI 5,086, 6,113); baseline cycle 1 day 1 8,419 pg/mL; P < 0.001
[3] = system: phosphohistone H3 (pHH3); experiment: Histone H3 phosphorylation in keratinocytes; type: in vivo, human; conditions: 9 paired skin biopsies at MTD, cycle 1 day 28
[4] = system: advanced solid tumors; experiment: Antitumor activity by modified RECIST and CA125; type: in vivo, human
[5] = system: patients with advanced solid tumors
[6] = day 1, 160 mg/m^2, n=8, mean ± SD
[7] = day 28, 160 mg/m^2, n=5, mean ± SD

Cc1cc(Nc2cc(N3CCN(C)CC3)nc(/C=C/c3ccccc3)n2)n[nH]1 [ENMD-2076]
CL/F ([1]; day 1, 60 mg/m^2, n=6, mean ± SD): 37.9 ± 19.3 L/h
CL/F ([1]; day 1, 80 mg/m^2, n=4, mean ± SD): 45.9 ± 13.0 L/h
CL/F ([1]; day 1, 120 mg/m^2, n=3, mean ± SD): 64.3 ± 16.9 L/h
CL/F [1, 6]: 52.9 ± 18.4 L/h
CL/F ([1]; day 1, 200 mg/m^2, n=5, mean ± SD): 41.5 ± 13.3 L/h
CL/F ([1]; day 1, 350 mg/m^2, n=2, mean ± SD): 55.2 ± 12.9 L/h
CL/F ([1]; day 28, 60 mg/m^2, n=6, mean ± SD): 10.4 ± 7.9 L/h
CL/F ([1]; day 28, 80 mg/m^2, n=3, mean ± SD): 10.8 ± 3.3 L/h
CL/F ([1]; day 28, 120 mg/m^2, n=3, mean ± SD): 13.0 ± 1.4 L/h
CL/F [1, 7]: 9.1 ± 2.9 L/h
CL/F ([1]; day 28, 200 mg/m^2, n=4, mean ± SD): 14.0 ± 4.7 L/h
AUC(0-inf) ([1]; 60 mg/m2, AUC(0-inf), day 1, 60 mg/m^2, n=6, mean ± SD): 3160 ± 1340 ng·h/mL
AUC(0-inf) ([1]; 60 mg/m2, AUC(0-inf), day 28, 60 mg/m^2, n=6, mean ± SD): 15300 ± 8910 ng·h/mL
Cmax ([1]; 60 mg/m2, Cmax, day 1, 60 mg/m^2, n=6, mean ± SD): 64 ± 23 ng/mL
Cmax ([1]; 60 mg/m2, Cmax, day 28, 60 mg/m^2, n=6, mean ± SD): 218 ± 95 ng/mL
Tmax ([1]; 60 mg/m2, Tmax, day 1, 60 mg/m^2, n=6, mean ± SD): 7.8 ± 7.8 h
Tmax ([1]; 60 mg/m2, Tmax, day 28, 60 mg/m^2, n=6, mean ± SD): 4.7 ± 3 h
half-life ([1]; 60 mg/m2, t1/2, day 1, 60 mg/m^2, n=6, mean ± SD): 36.4 ± 19.3 h
half-life ([1]; 60 mg/m2, t1/2, day 28, 60 mg/m^2, n=6, mean ± SD): 53.1 ± 20.4 h
AUC(0-inf) ([1]; 80 mg/m2, AUC(0-inf), day 1, 80 mg/m^2, n=4, mean ± SD): 3850 ± 1600 ng·h/mL
AUC(0-inf) ([1]; 80 mg/m2, AUC(0-inf), day 28, 80 mg/m^2, n=3, mean ± SD): 14700 ± 3780 ng·h/mL
Cmax ([1]; 80 mg/m2, Cmax, day 1, 80 mg/m^2, n=4, mean ± SD): 101 ± 59 ng/mL
Cmax ([1]; 80 mg/m2, Cmax, day 28, 80 mg/m^2, n=3, mean ± SD): 233 ± 76 ng/mL
Tmax ([1]; 80 mg/m2, Tmax, day 1, 80 mg/m^2, n=4, mean ± SD): 4 ± 1.6 h
Tmax ([1]; 80 mg/m2, Tmax, day 28, 80 mg/m^2, n=3, mean ± SD): 3.4 ± 1.2 h
half-life ([1]; 80 mg/m2, t1/2, day 1, 80 mg/m^2, n=4, mean ± SD): 31.8 ± 7.6 h
half-life ([1]; 80 mg/m2, t1/2, day 28, 80 mg/m^2, n=3, mean ± SD): 51 ± 18.7 h
AUC(0-inf) ([1]; 120 mg/m2, AUC(0-inf), day 1, 120 mg/m^2, n=3, mean ± SD): 3590 ± 1260 ng·h/mL
AUC(0-inf) ([1]; 120 mg/m2, AUC(0-inf), day 28, 120 mg/m^2, n=3, mean ± SD): 16700 ± 1120 ng·h/mL
Cmax ([1]; 120 mg/m2, Cmax, day 1, 120 mg/m^2, n=3, mean ± SD): 93 ± 14 ng/mL
Cmax ([1]; 120 mg/m2, Cmax, day 28, 120 mg/m^2, n=3, mean ± SD): 314 ± 73 ng/mL
Tmax ([1]; 120 mg/m2, Tmax, day 1, 120 mg/m^2, n=3, mean ± SD): 6 ± 3.5 h
Tmax ([1]; 120 mg/m2, Tmax, day 28, 120 mg/m^2, n=3, mean ± SD): 2.7 ± 3.2 h
half-life ([1]; 120 mg/m2, t1/2, day 1, 120 mg/m^2, n=3, mean ± SD): 27.3 ± 5.8 h
half-life ([1]; 120 mg/m2, t1/2, day 28, 120 mg/m^2, n=3, mean ± SD): 44.9 ± 8.6 h
AUC(0-inf) ([1]; 160 mg/m2, AUC(0-inf), day 1, 160 mg/m^2, n=8, mean ± SD): 5940 ± 2410 ng·h/mL
AUC(0-inf) ([1]; 160 mg/m2, AUC(0-inf), day 28, 160 mg/m^2, n=5, mean ± SD): 34600 ± 16500 ng·h/mL
Cmax ([1]; 160 mg/m2, Cmax, day 1, 160 mg/m^2, n=8, mean ± SD): 157 ± 52 ng/mL
Cmax ([1]; 160 mg/m2, Cmax, day 28, 160 mg/m^2, n=5, mean ± SD): 558 ± 222 ng/mL
Tmax ([1]; 160 mg/m2, Tmax, day 1, 160 mg/m^2, n=8, mean ± SD): 3.5 ± 1.4 h
Tmax ([1]; 160 mg/m2, Tmax, day 28, 160 mg/m^2, n=5, mean ± SD): 4.4 ± 2.1 h
Vd/F [1, 6]: 2020 ± 388 L
Vd/F [1, 7]: 600 ± 229 L
half-life ([1]; 160 mg/m2, t1/2, day 1, 160 mg/m^2, n=8, mean ± SD): 28.6 ± 8.4 h
half-life ([1]; 160 mg/m2, t1/2, day 28, 160 mg/m^2, n=5, mean ± SD): 46.1 ± 9.5 h
AUC(0-inf) ([1]; 200 mg/m2, AUC(0-inf), day 1, 200 mg/m^2, n=5, mean ± SD): 10600 ± 4900 ng·h/mL
AUC(0-inf) ([1]; 200 mg/m2, AUC(0-inf), day 28, 200 mg/m^2, n=4, mean ± SD): 34500 ± 18300 ng·h/mL
Cmax ([1]; 200 mg/m2, Cmax, day 1, 200 mg/m^2, n=5, mean ± SD): 229 ± 65 ng/mL
Cmax ([1]; 200 mg/m2, Cmax, day 28, 200 mg/m^2, n=4, mean ± SD): 557 ± 191 ng/mL
Tmax ([1]; 200 mg/m2, Tmax, day 1, 200 mg/m^2, n=5, mean ± SD): 4 ± 2.4 h
Tmax ([1]; 200 mg/m2, Tmax, day 28, 200 mg/m^2, n=4, mean ± SD): 4.5 ± 2.5 h
half-life ([1]; 200 mg/m2, t1/2, day 1, 200 mg/m^2, n=5, mean ± SD): 38.3 ± 10 h
half-life ([1]; 200 mg/m2, t1/2, day 28, 200 mg/m^2, n=4, mean ± SD): 47.6 ± 12.7 h
AUC(0-inf) ([1]; 350 mg/m2, AUC(0-inf), day 1, 350 mg/m^2, n=2, mean ± SD): 12200 ± 5100 ng·h/mL
Cmax ([1]; 350 mg/m2, Cmax, day 1, 350 mg/m^2, n=2, mean ± SD): 300 ± 18 ng/mL
Tmax ([1]; 350 mg/m2, Tmax, day 1, 350 mg/m^2, n=2, mean ± SD): 3 ± 1.4 h
half-life ([1]; 350 mg/m2, t1/2, day 1, 350 mg/m^2, n=2, mean ± SD): 31.1 ± 14.4 h
half-life ([1]; Mean terminal phase elimination half-life (t1/2), range, after a single dose): 27.3 to 38.3 h
Tmax ([1]; Tmax, range over all dose levels, day 28): 2.7 to 4.7 h
Mean plasma sVEGFR2 [2]: 5,600 pg/mL
Paired biopsies in which pHH3-positive cells decreased posttreatment [3]: 3 samples
Paired biopsies in which pHH3-positive cells increased [3]: 2 samples
Paired biopsies in which pHH3-positive cells remained the same [3]: 4 samples
Colorectal cancer patients with SD ≥ 12 weeks ([4]; 19 colorectal cancer patients, 5 patients): 26%
Ovarian cancer patients with PR or SD ≥ 12 weeks ([4]; 20 ovarian cancer patients, all dose levels, twelve patients): 60%
Partial responses (PR) as best response ([4]; 58 evaluable patients, 2 patients, 1 confirmed, both ovarian cancer): 3%
Progressive disease (PD) as best response ([4]; 58 evaluable patients, 7 patients): 12%
Patients with decreases in tumor measurements from baseline not qualifying as PR ([4]; twenty patients): 30%
Patients with grade 3 neutropenia requiring dose delay and reduction ([5]; 200 mg/m^2, 3 of 7): 43%
Patients with neutropenia ([5]; 200 mg/m^2 during dose escalation, 4 of 7): 57%
Rate of grade ≥ 3 neutropenia ([5]; 46 patients treated at 160 mg/m^2 (2/46)): 4%
Rate of grade ≥ 3 fatigue ([5]; 46 patients treated at 160 mg/m^2 (3/46)): 7%
Rate of grade ≥ 3 hypertension ([5]; 46 patients treated at 160 mg/m^2 (11/46)): 24%
Patients with adverse events meeting DLT criteria ([5]; MTD expansion, 12/38, 16 events): 32%
Patients requiring dose reduction ([5]; MTD expansion, 14/38): 37%
Patients with dose delays ([5]; MTD expansion, 24/38): 63%
